Our source for the IC50 values is BindingDB's records for doi:10.1016/j.bmc.2015.07.027 (Ocean University of China, 2015).

pIC50: −log10 of the molar value.

The nature of this data set: Modulation of P-gp (unknown origin) transfected in human MDA435/LCC6MDR cells assessed as paclitaxel IC50 for cell growth inhibition at 1 uM after 5 days by MTS assay.
The term pIC50 denotes the negative decadic logarithm of the IC50, by convention in mol/L. Consider `COc1ccc(C2=C(c3ccc(OC)c(OC)c3)C(=O)N(C(=O)N3CCN(CC(=O)c4ccc(OCc5ccccc5)c(OC)c4)CC3)C2=O)cc1OC`, for which the pIC50 was 7.59.

For the molecule `CCCCC1OC(=O)c2cc(NC(=O)N3C(=O)C(c4ccc(OC)c(OC)c4)=C(c4ccc(OC)c(OC)c4)C3=O)ccc21` (centres undefined), the pIC50 was 7.24.

With `COc1ccc(C2=C(c3ccc(OC)c(OC)c3)C(=O)N(C(=O)N3CCN(CC(=O)c4ccc(S(C)(=O)=O)cc4)CC3)C2=O)cc1OC`, the pIC50 is 6.87.

Turning to `COc1ccc(C2=C(c3ccc(OC)c(OC)c3)C(=O)N(C(=O)Nc3ccc4c(c3)C(=O)OC4)C2=O)cc1OC`, the pIC50 is 6.90.
